# Measurements published in paper PMC4076061 (Journal of cellular physiology, 2013).
# Assays:
# Type in all cases: cell-based
# [1] = molecular target: T1, cystic fibrosis transmembrane conductance regulator (CFTR) (Mus musculus, UniProt P26361); assay: whole-cell patch clamp; settings: read-out: % stimulation at 20 μM
# [2] = molecular target: T1, cystic fibrosis transmembrane conductance regulator (CFTR)
# [3] = molecular target: T1, cystic fibrosis transmembrane conductance regulator (CFTR); assay: whole-cell patch clamp of native Cl- current in mouse sperm; settings: read-out: % inhibition of db-cAMP-stimulated current (at 5 μM)
# T1 sequence (P26361 whole entry): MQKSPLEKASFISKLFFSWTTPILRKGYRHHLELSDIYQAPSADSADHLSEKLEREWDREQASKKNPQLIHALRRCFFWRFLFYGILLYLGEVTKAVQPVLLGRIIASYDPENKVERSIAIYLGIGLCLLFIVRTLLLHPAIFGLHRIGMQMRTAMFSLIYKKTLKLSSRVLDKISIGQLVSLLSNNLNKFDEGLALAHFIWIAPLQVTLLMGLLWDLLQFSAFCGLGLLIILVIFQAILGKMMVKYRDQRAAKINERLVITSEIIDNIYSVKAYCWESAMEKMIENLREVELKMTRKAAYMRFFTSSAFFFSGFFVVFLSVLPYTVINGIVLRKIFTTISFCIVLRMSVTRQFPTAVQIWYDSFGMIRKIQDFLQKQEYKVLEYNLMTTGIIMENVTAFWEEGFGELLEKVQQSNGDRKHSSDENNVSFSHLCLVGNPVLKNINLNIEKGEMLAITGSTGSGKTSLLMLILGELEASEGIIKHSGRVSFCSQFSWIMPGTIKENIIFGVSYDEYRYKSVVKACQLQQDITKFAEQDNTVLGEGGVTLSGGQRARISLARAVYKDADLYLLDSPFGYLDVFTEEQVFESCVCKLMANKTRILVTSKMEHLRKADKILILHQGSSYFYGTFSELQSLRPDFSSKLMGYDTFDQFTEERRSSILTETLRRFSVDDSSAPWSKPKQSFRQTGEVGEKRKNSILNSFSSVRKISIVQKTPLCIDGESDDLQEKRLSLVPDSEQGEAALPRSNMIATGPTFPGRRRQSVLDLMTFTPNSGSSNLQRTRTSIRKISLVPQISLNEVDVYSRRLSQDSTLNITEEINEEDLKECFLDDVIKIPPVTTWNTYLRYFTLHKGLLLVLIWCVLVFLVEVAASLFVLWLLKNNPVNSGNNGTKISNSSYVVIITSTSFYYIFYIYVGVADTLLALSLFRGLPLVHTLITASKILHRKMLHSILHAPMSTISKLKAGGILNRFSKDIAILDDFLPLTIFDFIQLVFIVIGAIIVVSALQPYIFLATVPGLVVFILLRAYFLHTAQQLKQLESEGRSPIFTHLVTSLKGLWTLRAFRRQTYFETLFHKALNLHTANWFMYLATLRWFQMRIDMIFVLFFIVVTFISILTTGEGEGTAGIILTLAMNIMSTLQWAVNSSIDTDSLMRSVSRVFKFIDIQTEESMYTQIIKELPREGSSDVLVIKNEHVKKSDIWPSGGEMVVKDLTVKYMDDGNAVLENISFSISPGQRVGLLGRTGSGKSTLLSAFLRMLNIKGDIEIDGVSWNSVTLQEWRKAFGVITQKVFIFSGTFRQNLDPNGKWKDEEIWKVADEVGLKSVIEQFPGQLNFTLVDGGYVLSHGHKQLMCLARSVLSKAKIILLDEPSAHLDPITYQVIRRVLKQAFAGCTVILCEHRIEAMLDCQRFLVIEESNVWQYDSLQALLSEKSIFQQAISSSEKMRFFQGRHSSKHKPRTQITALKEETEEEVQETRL
smiles,measurement,setting,value
O=c1c(-c2ccc(O)cc2)coc2cc(O)cc(O)c12 [genistein],activation at 20 µM,[1],54 ± 0.5%
O=C(O)c1ccccc1Nc1ccccc1 [DPC],IC50,[2],~175 µM
"O=C(O)c1ccc(/C=C2\SC(=S)N(c3cccc(C(F)(F)F)c3)C2=O)cc1 [CFTRinh-172, 3-[(3-trifluoromethyl)phenyl]-5-[(4 carboxyphenyl)methylene]-2-thioxo-4thiazolidinone]",inhibition at 5 µM,[3],60%
